The values that follow come from paper PMC8496776, “Staphylococcus aureus Lipase 3 (SAL3) is a surface-associated lipase that hydrolyzes short chain fatty acids” (PLoS ONE, 2021).

The target of experiment [1] is T1, rSAL3 (Staphylococcus aureus lipase 3, SAL3) (Staphylococcus aureus, UniProt A0A0H2XHH9).
T1 construct: gene SAUSA300_0641
As to the kind of experiment: p-nitrophenol release at […] nm. Type of experiment: biochemical. The conditions noted are these: 2 mM ester, 100 mM Tris HCl, 100 mM NaCl, pH 7, 37 C.

The target of experiment [2] is T1, rSAL3 (Staphylococcus aureus lipase 3, SAL3). As to the kind of experiment: LC-MS/MS loss of OAG without oleic acid release; also protein lipid overlay binding. Type of experiment: biochemical. The conditions noted are these: 2 h, 37 C, PBS; 2 ug/mL OAG; hydrolysis at the sn-2 acetate inferred.

T1 sequence (A0A0H2XHH9 entry or part of it): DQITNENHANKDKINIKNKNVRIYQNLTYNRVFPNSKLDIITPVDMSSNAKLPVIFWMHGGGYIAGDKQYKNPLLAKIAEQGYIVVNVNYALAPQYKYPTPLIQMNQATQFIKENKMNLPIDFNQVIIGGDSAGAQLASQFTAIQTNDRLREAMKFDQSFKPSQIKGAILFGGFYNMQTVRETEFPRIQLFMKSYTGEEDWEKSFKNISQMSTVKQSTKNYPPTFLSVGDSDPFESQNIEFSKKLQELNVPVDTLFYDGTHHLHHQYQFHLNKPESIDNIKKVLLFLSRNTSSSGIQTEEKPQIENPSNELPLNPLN

For `CCCC(=O)Oc1ccc([N+](=O)[O-])cc1` [pNP-C4, paranitrophenol butyrate], in experiment [1], the specific activity entry was “Alanine substitution mutations introduced in rSAL3MUT abolished the activity against pNP-C4”. As for `CCCCCCCC/C=C\CCCCCCCC(=O)OCC(CO)OC(C)=O` (centres unmarked) [1-oleoyl 2-acetyl glycerol], the “LC-MS/MS loss of OAG without oleic acid release; also protein lipid overlay bind” value in experiment [2] is on record as “marked reduction in the substrate only in reactions containing WT rSAL3”.
